These results are taken from patent US10155742B2, “Halofuginol derivatives and their use in cosmetic and pharmaceutical compositions” (President and Fellows of Harvard College, priority 2012, dated 2018).

The nature of the data set: Anti-HF ELISA of intracellular HF levels. It counts as in vitro ADME, mouse. The protocol: MEFs were incubated with the indicated concentration of HF in the presence or absence of 2 mM proline for 2 hours, washed twice in cold PBS, and lysed in 1% NP40. Lysates were then tested for HF levels in comparison to a standard curve using known concentrations of HF with an anti-HF antibody based ELISA assay (see Examples). […] Similar results were obtained in three separate experiments.
Polyclonal anti-HF antibody was raised by immunizing rabbits with KLH coupled to an HF derivative (MAZ1356, FIG. 1) containing a linker attached to the quinazolinone and terminated by a primary amino group. Antibody was affinity purified using MAZ1356 linked to NHS-agarose. For the ELISA assay (FIG. 17), MAZ1356 was coupled to 96-well Reacti-bind Plates (Pierce). After binding, plates were blocked with 10% goat serum in PBS/0.2% Tween-20 (PBST). […] Captured antibody was quantitated using TMB based colorimetric detection (Pierce), and a standard curve for HF concentration fitted from the colorimetric data. […] To determine HF concentration in cells, 8 μl of cleared lysate (or control buffer) was incubated with anti-HF antibody in MAZ1356 bound wells, and captured antibody detected and quantitated as described above. HF concentration was then determined by fitting colorimetry results with cell samples to a standard curve of HF concentration. […]

On to `O=C(C[C@H]1NCCC[C@@H]1O)Cn1cnc2cc(Br)c(Cl)cc2c1=O` (racemic) [HF, 7-bromo-6-chloro-3-[3-(3-hydroxy-2-piperidinyl)-2-oxopropyl]-4(3H)-quinazolinone], for which the “effect of proline addition on intracellular accumulation of HF” value (2 mM proline, 2 hours, FIG. 17) is recorded as “not affected”. In addition, for the setting “MEFs incubated with 20 nM HF for 2 hours, packed cell volume estimated as 4 μl”, the “absolute HF concentration inside cells” value is roughly 800 nM.
